Assay results reported in US9649305B2, “PFKFB3 inhibitor and methods of use as an anti-cancer therapeutic” (ADVANCED CANCER THERAPEUTICS, LLC, priority 2012, dated 2017).
Where two headings read alike, the source gives them in different places.

What was measured:
PFKFB3 [1] = molecular target: T1, PFKFB3 (Homo sapiens, UniProt Q16875); assay: Enzymatic activity of recombinant PFKFB3, ADP-Glo assay; assay type: biochemical
Experimental: The inducible bifunctional 6-Phosphofructo-2-kinase/fructose2,6-biphosphatase enzyme (PFKFB3) was expressed and purified in order to determine if PFK-158 inhibits enzymatic activity. PFKFB3 was prepared by expression in E. coli and purified by GST column and column chromatography. […] The recombinant protein was pure and active as determined by the results of a commercially available kinase activity assay (ADP-Glo™, Promega, Madison, Wis.).

Jurkat cells = assay: Inhibition of 14C-2-deoxyglucose uptake; assay type: cell-based; conditions: Homo sapiens, Jurkat cells
Experimental: Inhibition of PFKFB3 results in inhibiting glycolysis. Several feedback or feedforward activation and inhibition mechanisms exist so that, by a feedback mechanism, inhibiting the activity of PFKFB3 might inhibit glucose uptake by cells. An assay was developed to determine if there was inhibition of glucose uptake following exposure PFK-158. Briefly, Jurkat cells were plated at 10^5 cells/mL in RPMI 1640 supplemented with 10% fetal bovine serum and 50 μg/mL gentamicin sulfate. Cells were immediately treated with vehicle or 0.5 μmol/L of PFK-158 for 3 hours and subsequently placed in glucose-free RPMI 1640 for 30 min. ^14C-2-deoxyglucose (0.25 μCi/mL; Perkin Elmer) was added for an additional 60 min and cells were then washed three times with ice-cold RPMI 1640 containing no glucose. Cell lysates were collected in 500 μL of 0.1% SDS and scintillation counts (counts/min) were measured on 400 μL of lysate. Counts were normalized to protein concentration.

A498 = assay: Cancer cell proliferation, MTT assay; assay type: cell-based; conditions: Homo sapiens, 48 hours
Experimental: (§1) The ability of PFK-158 to kill or inhibit the proliferation of cancer cells was measured using either the MTT assay, the alamarBlue® assay (Invitrogen, Grand Island, N.Y.), or the CellTiter Glo™ assay (Promega, Madison, Wis.) using 48 or 72 hours exposure.
(§2) Cells of the desired tumor cell line were plated at 2×10^5 cells/ml in 96 well plates. Twice the indicated concentrations of the compounds of the invention were added to cells the following day in an equal volume of media. 72 hours later, cells were lysed and subjected to ATP determination using the CellTiter-Glo™ Luminescent Cell Viability Assay kit. Experiments were performed in triplicate. When using the MTT assay or the alamarBlue® assay, the experimental conditions are essentially similar; at the end of the incubation period, 20 microliters of the MTT solution is added per well and the samples are incubated for an additional four hours, rinsed, and absorbance at 570 nm was measured. Results for the inhibition of cell proliferation are reported as the IC50 (the concentration resulting in 50% inhibition of proliferation of the cell population) and are listed in Table 5 below. Cell lines include lung, colon, prostate, breast, ovarian, and pancreatic cancer lines.

A549 = assay: Cancer cell proliferation, MTT assay; assay type: cell-based; conditions: Homo sapiens, 48 hours
Experimental: as §1, §2

BT474 = assay: Cancer cell proliferation, MTT assay; assay type: cell-based; conditions: Homo sapiens, BT-474, 48 hours
Experimental: as §1, §2

HCT116 = assay: Cancer cell proliferation, MTT assay; assay type: cell-based; conditions: Homo sapiens, HCT-116, 48 hours
Experimental: as §1, §2

MiaPaCa-2 = assay: Cancer cell proliferation, MTT assay; assay type: cell-based; conditions: Homo sapiens, MIA PaCa-2; MiaPaCa-2, MTT assay, 48 hours
Experimental: as §1, §2

PC-3 = assay: Cancer cell proliferation, MTT assay; assay type: cell-based; conditions: Homo sapiens; PC-3, MTT assay, 48 hours
Experimental: as §1, §2

SK-BR-3 = assay: Cancer cell proliferation, MTT assay; assay type: cell-based; conditions: Homo sapiens; SK-BR-3, MTT assay, 48 hours
Experimental: as §1, §2

SW620 = assay: Cancer cell proliferation, MTT assay; assay type: cell-based; conditions: Homo sapiens, SW-620, 48 hours
Experimental: as §1, §2

[2] = Maximum tolerated dose study; assay type: in vivo; conditions: 3 days on/3 days off schedule
Experimental: Several maximum tolerated dose studies and toxicology studies were performed and the results indicated PFK-158 is safer than PFK-015. Studies were performed in C57/B16 mice and SD rats.

[3] = Repeat-dose toxicology study in SD rats; assay type: in vivo
Experimental: Toxicology studies were performed in SD rats comparing PFK-158 and PFK-015 using a repeat dosing schedule. The studies were performed at dose levels ranging from 5 to 30 mg/kg and animals were monitored for weight loss, behavior, clinical signs, and clinical chemistries. At the end of the study, gross pathology and histopathology were performed.

[4] = Toxicology study in dogs at 40 mg/kg; assay type: in vivo, beagle dogs
Experimental: In another embodiment, the potential toxicity of PFK-158 (in the form of its dication) was investigated at 40 mg/kg in male and female beagle dogs using a 3 day a week for a total of three weeks dosing regimen. The potential toxicity of PFK-158 was investigated by monitoring all clinical signs during the in-life phase, taking blood and urine samples for full clinical chemistry panels and urinalysis, monitoring body weights and food intake. Gross necropsy and complete histopathology were performed at the time of termination.

[5] = Photoisomerization in formulation; assay type: physicochemical; conditions: phospho-lipidic aqueous emulsion or emulsifier-free, solvent-free aqueous solution
From the text: Further, the solubility properties of PFK-158 are such that, if required, the compound can be administered using either a phospho-lipidic aqueous based emulsion, or in an emulsifier-free, solvent-free aqueous based solution.

PFKFB3 [6] = molecular target: T1, PFKFB3; assay: Enzymatic activity of PFKFB3 in cells (F2,6BP levels, Van Schaftingen method); assay type: cell-based; design: endogenous in cells; host or cells: Jurkat cells
Experimental: Inhibition of PFKFB3 can also be measured in cells by measuring fructose-2,6-biphosphate levels according to the Van Schaftingen method (Eur. J. of Biochem, 129: 191 (1982)). This method enables measurement of the inhibition in a cellular environment, a model more relevant than the pure recombinant protein. Briefly, Jurkat cells were plated at 1×10^5 cells/mL and incubated with different concentrations of PFK-158 for 3 hours. Samples were collected and cells were lysed. Extracts were characterized as described in previous reports and normalized to protein concentration.

T1 sequence (Q16875 whole entry): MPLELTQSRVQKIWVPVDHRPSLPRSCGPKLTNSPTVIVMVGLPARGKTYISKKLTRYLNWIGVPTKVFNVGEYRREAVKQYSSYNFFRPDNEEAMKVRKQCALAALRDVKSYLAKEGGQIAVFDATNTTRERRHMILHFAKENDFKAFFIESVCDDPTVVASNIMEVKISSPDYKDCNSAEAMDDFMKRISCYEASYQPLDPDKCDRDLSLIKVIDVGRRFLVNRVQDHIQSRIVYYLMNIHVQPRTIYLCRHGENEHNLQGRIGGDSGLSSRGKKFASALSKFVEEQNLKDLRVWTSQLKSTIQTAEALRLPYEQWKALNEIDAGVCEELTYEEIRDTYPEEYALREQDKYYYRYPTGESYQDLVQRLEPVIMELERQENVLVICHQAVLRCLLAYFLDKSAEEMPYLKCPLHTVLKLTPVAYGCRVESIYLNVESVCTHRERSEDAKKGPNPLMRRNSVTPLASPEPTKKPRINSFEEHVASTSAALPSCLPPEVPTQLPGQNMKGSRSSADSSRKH

Structure (SMILES): O=C(/C=C/c1ccc2ccc(C(F)(F)F)cc2n1)c1ccncc1 [PFK-158, (E)-1-(pyridyn-4-yl)-3-(7-(trifluoromethyl)quinolin-2-yl)-prop-2-en-1-one]
- IC50 (PFKFB3 [1]; FIG. 1, read-out: IC50, inhibition of recombinant PFKFB3 (ADP-Glo)): 137 ± 15 nM
- IC50 (PFKFB3 [1]; Table 1, read-out: IC50, Enzymatic activity of PFKFB3, ADP Glo Assay): 137 ± 15 nM
- IC50 (PFKFB3 [1]; Table 6, read-out: IC50 Rec PFKFB3): 137 ± 15 nM
- IC50 (PFKFB3 [1]; Table 8, read-out: IC50, Enzymatic activity of PFKFB3, ADP-Glo Assay): 137 ± 15 nM
- IC50 (Jurkat cells; FIG. 2, 14C-2-deoxyglucose, read-out: IC50, inhibition of glucose uptake): 847 ± 150 nM
- IC50 (Jurkat cells; Table 1, read-out: IC50, Inhibition of 2 deoxyglucose uptake): 800 ± 100 nM
- IC50 (Jurkat cells; Table 6, read-out: IC50 Glucose Uptake): 847 ± 150 nM
- IC50 (A498): 3510 nM
- IC50 (A549): 8650 nM
- IC50 (BT474): 1950 nM
- IC50 (HCT116): 3400 nM
- IC50 (MiaPaCa-2): 3350 nM
- IC50 (PC-3): 1180 nM
- IC50 (SK-BR-3): 1600 nM
- IC50 (SW620): 2670 nM
- MTD ([2]; C57/B16, mouse, in vivo, read-out: MTD): > 45 mg/kg
- MTD ([2]; Table 4, body weight loss superior to 10% or death): Not reached, >45 mg/kg
- MTD ([3]; rat, in vivo, repeat dosing schedule): > 30 mg/kg
- Adverse observations in toxicology study ([3]; repeat dosing, PFK-158 5 to 30 mg/kg, PFK-015 12 and 25 mg/kg): no adverse observations
- signs of toxicity ([4]; beagle dogs, 40 mg/kg three times a week for three weeks): no signs of toxicity
- NOAEL at 3 weeks ([4]; both sexes, beagle, dog, in vivo): 40 mg/kg
- Human Equivalent Dose (HED) of the NOAEL ([4]; dog, in vivo): 800 mg/m^2
- photoisomerization in solution [5]: does not, in the formulation mentioned above, undergo a rapid photoisomerization
- IC50 (PFKFB3 [6]; FIG. 3, Jurkat cells, 3 hours, read-out: IC50, PFKFB3 in cells by fructose-2,6-biphosphate levels): 1600 ± 800 nM
- IC50 (PFKFB3 [6]; Table 1, F2,6BP levels, Jurkat cells, read-out: IC50, Enzymatic activity of PFKFB3 in cells): 1600 ± 800 nM
- IC50 (PFKFB3 [6]; Table 6, Jurkat cells, read-out: IC50 Cellular PFKFB3 (F2,6BP)): 1620 ± 400 nM
- IC50 (PFKFB3 [6]; Table 8, read-out: IC50, Enzymatic activity of PFKFB3 in cells): 1600 ± 800 nM
